From PMC8552302 (Journal of medicinal chemistry, 2021)

Legend:
mMC3R = mMC3R (Mus musculus, UniProt P33033); experiment: β-galactosidase cAMP reporter agonist assay, mMC3R; settings: read-out: efficacy at the mMC3R compared to the maximal response of α-MSH
[1] = rhesus monkey, in vivo; cited from earlier work

Sequence of mMC3R (P33033 whole entry): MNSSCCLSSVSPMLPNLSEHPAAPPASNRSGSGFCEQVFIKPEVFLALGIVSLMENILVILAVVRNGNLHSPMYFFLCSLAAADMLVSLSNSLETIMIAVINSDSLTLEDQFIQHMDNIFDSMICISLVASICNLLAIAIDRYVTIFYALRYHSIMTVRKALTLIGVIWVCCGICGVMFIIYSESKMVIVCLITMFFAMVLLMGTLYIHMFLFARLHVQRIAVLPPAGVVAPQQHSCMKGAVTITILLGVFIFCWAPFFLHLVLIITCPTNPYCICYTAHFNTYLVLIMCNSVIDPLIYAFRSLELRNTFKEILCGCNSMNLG

O=C(NC(Cc1ccc(Cl)cc1)C(=O)N1CCC(Cn2cncn2)(C2CCCCC2)CC1)[C@H]1Cc2ccccc2CN1 (stereo in doubt) [THIQ, N-[(3R)-1,2,3,4-tetrahydroisoquinolinium-3-ylcarbonyl]-(1R)-1-(4-chlorobenzyl)2-[4-cyclohexyl-4-(1H-1,2,4-triazol-1-ylmethyl)piperidin-1-yl]-2-oxoethylamine]
Emax (mMC3R): 90 to 95%

Ac-DArg-c[Cys-Glu-His-DPhe-Arg-Trp-Cys-NH2 [LY2112688]
effect on heart rate and blood pressure [1]: significantly increased heart rate and blood pressure
